Tests used:
[1] = target: T1, Nuclear factor NF-kappa-B complex (Homo sapiens) (UniProt Q00653+P19838+Q04206); assay: Activation of NF-kappaB in HEK-Blue hNOD2 cells assessed as fold change at 10 nM incubated for 48 hrs by SEAP reporter assay; format: cell-based; details: filed as activator
[2] = target: T1, Nuclear factor NF-kappa-B complex (Homo sapiens); assay: Activation of NF-kappaB in HEK-Blue hNOD2 cells assessed as fold change at 1000 nM incubated for 48 hrs by SEAP reporter assay; format: cell-based; details: filed as activator
[3] = target: T1, Nuclear factor NF-kappa-B complex (Homo sapiens); assay: Activation of NF-kappaB in HEK-Blue hNOD2 cells assessed as fold change at 100 nM incubated for 48 hrs by SEAP reporter assay; format: cell-based; details: filed as activator
[4] = target: T1, Nuclear factor NF-kappa-B complex (Homo sapiens); assay: Activation of NF-KappaB (unknown origin) expressed in HEK293T cells assessed as fold change at 100 ng incubated for 12 hrs by Renilla luciferase assay; format: cell-based; details: filed as activator
[5] = target: T1, Nuclear factor NF-kappa-B complex (Homo sapiens); assay: Activation of NF-KappaB (unknown origin) expressed in HEK293T cells assessed as fold change at 1000 ng incubated for 12 hrs by Renilla luciferase assay; format: cell-based; details: filed as activator
[6] = target: T1, Nuclear factor NF-kappa-B complex (Homo sapiens); assay: Activation of NF-KappaB (unknown origin) expressed in HEK293T cells assessed as fold change at 10 ng incubated for 12 hrs by Renilla luciferase assay; format: cell-based; details: filed as activator
[7] = target: T1, Nuclear factor NF-kappa-B complex (Homo sapiens); assay: Activation of NF-KappaB in HEK293T cells assessed as fold change; format: cell-based; details: filed as activator
[8] = organism: Cavia porcellus; assay: Induction of delayed type hypersensitivity in ABA-BSA immunized Hartley Guinea pigs assessed as reduction in skin lesions at 100 ug measured for 48 hrs; format: functional; details: dose 100 µg
[9] = organism: Cavia porcellus; assay: Induction of delayed type hypersensitivity in ABA-BSA immunized Hartley Guinea pigs assessed as reduction in skin lesions at 100 ug measured for 24 hrs; format: functional; details: dose 100 µg
[10] = target: T2, Nucleotide-binding oligomerization domain-containing protein 2 (Homo sapiens, UniProt Q9HC29); assay: Agonist activity at NOD2 (unknown origin)
T2 sequence (Q9HC29 whole entry, the tested form may be a part): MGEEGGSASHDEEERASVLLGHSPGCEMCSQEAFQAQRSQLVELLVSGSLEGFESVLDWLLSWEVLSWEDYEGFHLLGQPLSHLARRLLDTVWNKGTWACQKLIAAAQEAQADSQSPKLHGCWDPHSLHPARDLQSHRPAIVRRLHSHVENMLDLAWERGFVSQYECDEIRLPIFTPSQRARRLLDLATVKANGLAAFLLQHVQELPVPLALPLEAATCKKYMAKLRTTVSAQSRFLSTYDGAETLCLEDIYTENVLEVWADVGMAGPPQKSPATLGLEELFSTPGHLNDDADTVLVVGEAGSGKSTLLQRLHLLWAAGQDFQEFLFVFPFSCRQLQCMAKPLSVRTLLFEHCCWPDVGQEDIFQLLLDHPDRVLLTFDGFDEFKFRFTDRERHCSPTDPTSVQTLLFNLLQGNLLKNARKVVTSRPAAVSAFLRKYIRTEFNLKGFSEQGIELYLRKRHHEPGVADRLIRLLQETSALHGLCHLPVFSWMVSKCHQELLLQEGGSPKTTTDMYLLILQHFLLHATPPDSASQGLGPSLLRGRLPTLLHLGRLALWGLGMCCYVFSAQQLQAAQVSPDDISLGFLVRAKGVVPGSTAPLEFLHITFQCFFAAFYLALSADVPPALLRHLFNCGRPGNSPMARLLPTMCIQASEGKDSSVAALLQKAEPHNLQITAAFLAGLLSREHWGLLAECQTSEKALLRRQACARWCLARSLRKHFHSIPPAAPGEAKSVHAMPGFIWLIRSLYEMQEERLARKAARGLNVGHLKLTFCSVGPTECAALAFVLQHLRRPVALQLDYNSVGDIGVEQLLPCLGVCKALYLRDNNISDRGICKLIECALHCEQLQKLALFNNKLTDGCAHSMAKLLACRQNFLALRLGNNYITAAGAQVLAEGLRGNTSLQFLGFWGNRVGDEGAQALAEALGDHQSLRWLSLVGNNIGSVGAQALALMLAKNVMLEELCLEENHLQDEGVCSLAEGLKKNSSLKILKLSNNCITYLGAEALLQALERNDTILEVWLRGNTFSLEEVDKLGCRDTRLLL

[11] = target: T2, Nucleotide-binding oligomerization domain-containing protein 2; assay: Activation of NOD2 in HEK293T cells; format: cell-based; details: filed as activator

T1 sequence (P19838 whole entry, looked up): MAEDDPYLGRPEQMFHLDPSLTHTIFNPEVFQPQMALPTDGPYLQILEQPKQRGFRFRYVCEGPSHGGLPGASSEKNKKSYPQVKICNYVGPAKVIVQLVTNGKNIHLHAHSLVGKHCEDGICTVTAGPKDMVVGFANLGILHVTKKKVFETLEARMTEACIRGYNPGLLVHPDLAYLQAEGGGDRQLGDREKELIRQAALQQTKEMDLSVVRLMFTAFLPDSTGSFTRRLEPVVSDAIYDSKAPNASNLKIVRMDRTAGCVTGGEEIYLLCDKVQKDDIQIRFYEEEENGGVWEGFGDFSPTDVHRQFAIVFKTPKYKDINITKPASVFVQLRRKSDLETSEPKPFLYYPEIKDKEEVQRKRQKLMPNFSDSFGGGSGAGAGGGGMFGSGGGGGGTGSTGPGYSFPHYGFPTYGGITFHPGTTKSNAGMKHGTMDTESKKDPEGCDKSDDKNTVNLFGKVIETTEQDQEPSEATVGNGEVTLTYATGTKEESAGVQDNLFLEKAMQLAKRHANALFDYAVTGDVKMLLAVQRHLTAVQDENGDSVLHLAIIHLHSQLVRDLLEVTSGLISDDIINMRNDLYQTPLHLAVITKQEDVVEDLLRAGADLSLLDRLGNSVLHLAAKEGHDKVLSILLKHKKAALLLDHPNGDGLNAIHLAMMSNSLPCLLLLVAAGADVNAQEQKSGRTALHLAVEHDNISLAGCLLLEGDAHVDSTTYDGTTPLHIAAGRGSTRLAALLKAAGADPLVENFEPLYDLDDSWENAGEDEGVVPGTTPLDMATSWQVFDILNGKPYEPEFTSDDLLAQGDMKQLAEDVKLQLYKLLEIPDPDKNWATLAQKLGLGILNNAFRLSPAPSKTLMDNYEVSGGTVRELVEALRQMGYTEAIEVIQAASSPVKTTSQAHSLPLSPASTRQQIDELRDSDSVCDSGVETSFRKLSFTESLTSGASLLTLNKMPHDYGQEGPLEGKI
T1 sequence (Q00653 whole entry, looked up): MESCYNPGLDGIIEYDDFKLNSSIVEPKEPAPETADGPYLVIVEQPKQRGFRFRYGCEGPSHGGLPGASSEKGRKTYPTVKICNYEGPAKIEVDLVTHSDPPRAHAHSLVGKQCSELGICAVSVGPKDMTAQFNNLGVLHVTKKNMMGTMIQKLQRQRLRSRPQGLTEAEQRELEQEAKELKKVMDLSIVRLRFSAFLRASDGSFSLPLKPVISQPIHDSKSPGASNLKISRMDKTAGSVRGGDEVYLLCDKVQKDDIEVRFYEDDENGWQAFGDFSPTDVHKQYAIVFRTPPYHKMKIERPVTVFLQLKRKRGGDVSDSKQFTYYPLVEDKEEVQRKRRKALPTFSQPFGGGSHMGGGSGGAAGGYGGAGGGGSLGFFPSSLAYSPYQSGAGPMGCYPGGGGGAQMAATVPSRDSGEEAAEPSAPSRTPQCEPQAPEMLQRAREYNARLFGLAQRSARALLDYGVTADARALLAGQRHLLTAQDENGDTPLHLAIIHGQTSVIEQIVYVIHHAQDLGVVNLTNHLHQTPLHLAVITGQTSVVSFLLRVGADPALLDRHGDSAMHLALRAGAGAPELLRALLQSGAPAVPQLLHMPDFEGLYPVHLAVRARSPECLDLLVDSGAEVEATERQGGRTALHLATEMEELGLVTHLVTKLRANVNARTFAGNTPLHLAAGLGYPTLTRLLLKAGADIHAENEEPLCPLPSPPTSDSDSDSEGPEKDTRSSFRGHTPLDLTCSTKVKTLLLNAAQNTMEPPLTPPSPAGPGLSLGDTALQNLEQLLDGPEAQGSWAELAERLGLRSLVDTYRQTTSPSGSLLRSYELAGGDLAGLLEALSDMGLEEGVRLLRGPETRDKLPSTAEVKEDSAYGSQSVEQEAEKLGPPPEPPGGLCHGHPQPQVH
T1 sequence (Q04206 whole entry, looked up): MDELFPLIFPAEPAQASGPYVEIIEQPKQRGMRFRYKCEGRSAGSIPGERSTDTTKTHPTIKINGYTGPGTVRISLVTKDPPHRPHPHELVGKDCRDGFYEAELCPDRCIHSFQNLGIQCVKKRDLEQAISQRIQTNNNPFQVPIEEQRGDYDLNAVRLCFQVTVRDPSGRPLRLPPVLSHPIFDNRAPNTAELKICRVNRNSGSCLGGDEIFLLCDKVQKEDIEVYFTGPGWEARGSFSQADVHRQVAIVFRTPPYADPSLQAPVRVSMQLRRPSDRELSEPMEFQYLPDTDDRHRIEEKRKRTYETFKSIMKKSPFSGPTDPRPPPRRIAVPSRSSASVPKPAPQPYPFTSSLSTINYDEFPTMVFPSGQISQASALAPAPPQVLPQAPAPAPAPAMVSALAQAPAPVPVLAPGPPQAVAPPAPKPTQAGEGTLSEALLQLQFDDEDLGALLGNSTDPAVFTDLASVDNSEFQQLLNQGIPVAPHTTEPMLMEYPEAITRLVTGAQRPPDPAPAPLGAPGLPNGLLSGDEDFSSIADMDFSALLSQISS

SMILES | fold change (FC) [1] | fold change (FC) [2] | fold change (FC) [3] | fold change (FC) [4] | fold change (FC) [5] | fold change (FC) [6] | fold change (FC) [7] | other results
CC(=O)N[C@@H]1[C@@H](O[C@H](C)C(=O)N[C@@H](C)C(=O)N[C@H](CCC(=O)O)C(N)=O)[C@H](n2cc(CNC(=O)Cc3ccc(C(F)(F)F)cc3)nn2)[C@@H](CO)O[C@H]1O | 1.15 | 1.35 | 1.1 |  |  |  |  | 
CC(=O)N[C@H]1[C@H](OCc2ccccc2)O[C@H](CO)[C@@H](N)[C@@H]1O[C@H](C)C(=O)N[C@@H](C)C(=O)N[C@H](CCC(=O)O)C(N)=O | 1.1 | 1.35 | 1.2 |  |  |  |  | 
CC(=O)N[C@@H]1[C@@H](O[C@H](C)C(=O)NCC(=O)N[C@H](CCC(=O)O)C(N)=O)[C@H](O)[C@@H](CO)O[C@H]1O |  |  |  | 2.8 | 9.8 | 1.3 |  | 
CC(=O)N[C@@H]1[C@@H](O[C@H](C)C(=O)N[C@@H](C)C(=O)N[C@@H](CCC(=O)O)C(N)=O)[C@H](O)[C@@H](CNC(=O)CCOCCOCCOCCOCCOCCOCCOCCOCCOCCOCCOCCOCCNC(=O)CCCC[C@@H]2SC[C@@H]3NC(=O)N[C@@H]32)O[C@H]1O |  |  |  |  |  |  | 1.05 | 
CC(=O)N[C@@H]1[C@@H](O[C@H](C)C(=O)N[C@H](C)C(=O)N[C@H](CCC(=O)O)C(N)=O)[C@H](O)[C@@H](CO)O[C@H]1O |  |  |  | 1 | 1.6 | 1.3 |  | 
CC(=O)N[C@@H]1[C@@H](O[C@H](C)C(=O)N[C@@H](C)C(=O)N[C@@H](CCC(=O)O)C(N)=O)[C@H](O)[C@@H](CNC(=O)CCOCCOCCOCCOCCNC(=O)CCCC[C@@H]2SC[C@@H]3NC(=O)N[C@@H]32)O[C@H]1O |  |  |  |  |  |  | 1.2 | 
CC(=O)N[C@H]1[C@H](OCc2ccccc2)O[C@H](CO)[C@@H](N=[N+]=[N-])[C@@H]1O[C@H](C)C(=O)N[C@@H](C)C(=O)N[C@H](CCC(=O)O)C(N)=O | 1.3 | 3.15 | 1.65 |  |  |  |  | 
CC(=O)N[C@@H]1[C@@H](O[C@H](C)C(=O)N[C@H](CO)C(=O)N[C@H](CCC(=O)O)C(N)=O)[C@H](O)[C@@H](CO)O[C@H]1O |  |  |  | 1.05 | 3.4 | 1.7 |  | 
CC(=O)N[C@@H]1[C@@H](O[C@H](C)C(=O)N2CCC[C@H]2C(=O)N[C@H](CCC(=O)O)C(N)=O)[C@H](O)[C@@H](CO)O[C@H]1O |  |  |  | 1.3 | 1.5 | 1.4 |  | 
CC(=O)N[C@@H]1[C@@H](O[C@H](C)C(=O)N[C@@H](C)C(=O)N[C@@H](CCC(=O)O)C(N)=O)[C@H](O)[C@@H](CN)O[C@H]1O |  |  |  |  |  |  | 1.1 | 
CC(=O)N[C@@H]1[C@@H](O[C@H](C)C(=O)N[C@@H](C)C(=O)N[C@H](CCC(=O)O)C(N)=O)[C@H](O)[C@@H](CNC(=O)CCSSCCNC(=O)CCCC[C@@H]2SC[C@@H]3NC(=O)N[C@@H]32)O[C@H]1O |  |  |  |  |  |  | 7.05 | 
CNCc1cn([C@H]2[C@H](O[C@H](C)C(=O)N[C@@H](C)C(=O)N[C@H](CCC(=O)O)C(N)=O)[C@@H](NC(C)=O)[C@H](O)O[C@@H]2CO)nn1 | 1.1 | 1 | 1.05 |  |  |  |  | 
CC(=O)N[C@@H]1[C@@H](O[C@H](C)C(=O)N[C@@H](C)C(=O)N[C@H](CCC(=O)O)C(N)=O)[C@H](O)[C@@H](CN)O[C@H]1O |  |  |  |  |  |  | 9.15 | Activity [8]: 10.9 mm; Activity [9]: 17.3 mm
CC(=O)N[C@@H]1[C@@H](O[C@H](C)C(=O)N[C@@H](C)C(=O)N[C@H](CCC(=O)O)C(N)=O)[C@H](O)[C@@H](CNC(=O)CCOCCOCCOCCOCCNC(=O)CCCC[C@@H]2SC[C@@H]3NC(=O)N[C@@H]32)O[C@H]1O |  |  |  |  |  |  | 9.45 | 
CC(=O)N[C@H]1C(O)O[C@H](CO)[C@@H](O)[C@@H]1O[C@H](C)C(=O)N[C@@H](C)C(=O)N[C@H](CCC(=O)O)C(N)=O (some centres not stated) [MURAMYL DIPEPTIDE] | 1.7 | 6.55 | 4 |  |  |  |  | Activity [8]: 19 mm; EC50 [10]: 203 nM; Activity [9]: 21 mm
CC(=O)N[C@@H]1[C@@H](O[C@H](C)C(=O)N[C@@H](C)C(=O)N[C@H](CCC(=O)O)C(N)=O)[C@H](O)[C@@H](CNC(=O)CCOCCOCCOCCOCCOCCOCCOCCOCCOCCOCCOCCOCCNC(=O)CCCC[C@@H]2SC[C@@H]3NC(=O)N[C@@H]32)O[C@H]1O |  |  |  |  |  |  | 3 | 
CC(=O)N[C@@H]1[C@@H](O[C@H](C)C(=O)N[C@H](C(=O)N[C@H](CCC(=O)O)C(N)=O)[C@@H](C)O)[C@H](O)[C@@H](CO)O[C@H]1O |  |  |  | 1.15 | 5 | 1.8 |  | 
COc1ccc(CC(=O)NCc2cn([C@H]3[C@H](O[C@H](C)C(=O)N[C@@H](C)C(=O)N[C@H](CCC(=O)O)C(N)=O)[C@@H](NC(C)=O)[C@H](OCc4ccccc4)O[C@@H]3CO)nn2)cc1 | 1.1 | 1.2 | 1.05 |  |  |  |  | 
COc1ccc(CC(=O)NCc2cn([C@H]3[C@H](O[C@H](C)C(=O)N[C@@H](C)C(=O)N[C@H](CCC(=O)O)C(N)=O)[C@@H](NC(C)=O)[C@H](O)O[C@@H]3CO)nn2)cc1 | 1.1 | 1.55 | 1.15 |  |  |  |  | 
CC(=O)N[C@@H]1[C@@H](O[C@H](C)C(=O)N[C@@H](C)C(=O)N[C@@H](CCC(=O)O)C(N)=O)[C@H](O)[C@@H](CNC(=O)CCSSCCNC(=O)CCCC[C@@H]2SC[C@@H]3NC(=O)N[C@@H]32)O[C@H]1O |  |  |  |  |  |  | 0.9 | 
CC(=O)N[C@@H]1[C@@H](O[C@H](C)C(=O)N[C@@H](C(=O)N[C@H](CCC(=O)O)C(N)=O)C(C)C)[C@H](O)[C@@H](CO)O[C@H]1O |  |  |  | 1.05 | 1.1 | 1 |  | 
CC(=O)N[C@@H]1[C@@H](O[C@H](C)C(=O)N(C)[C@H](C)C(=O)N[C@H](CCC(=O)O)C(N)=O)[C@H](O)[C@@H](CO)O[C@H]1O |  |  |  | 1.3 | 1.05 | 1.1 |  | 
COc1cccc(-c2cn([C@H]3[C@H](O[C@H](C)C(=O)N[C@@H](C)C(=O)N[C@H](CCC(=O)O)C(N)=O)[C@@H](NC(C)=O)[C@H](O)O[C@@H]3CO)nn2)c1 | 1.1 | 1 | 1.05 |  |  |  |  | 
CC(=O)N[C@@H]1[C@@H](O[C@H](C)C(=O)N(C)[C@@H](C)C(=O)N[C@H](CCC(=O)O)C(N)=O)[C@H](O)[C@@H](CO)O[C@H]1O |  |  |  | 1.1 | 3 | 1.5 |  | 
CCO[C@@H]1O[C@H](CO)[C@@H](O[C@@H]2O[C@H](CO)[C@@H](O[C@@H]3O[C@H](CO)[C@@H](O[C@@H]4O[C@H](CO)[C@@H](O)[C@H](O[C@H](C)C(=O)N[C@@H](C)C(=O)N[C@H](CCC(=O)N[C@@H](CCCCN)C(=O)N[C@H](C)C(=O)O)C(N)=O)[C@H]4NC(C)=O)[C@H](O)[C@H]3NC(C)=O)[C@H](O)[C@H]2NC(C)=O)[C@H](O[C@H](C)C(=O)N[C@@H](C)C(=O)N[C@H](CCC(=O)N[C@@H](CCCCN)C(=O)N[C@H](C)C(=O)O)C(N)=O)[C@H]1NC(C)=O |  |  |  |  |  |  |  | Activity [11]: 0.09 mU
